Laboratory results: US20050169981A1, “Solid compositions comprising ramipril” (priority 2001, published 2005)

Test: Stability of capsules stored at 50° C. for one week, degradation products by HPLC
Assay type: physicochemical
Conditions: starting ramipril, before encapsulation and storage
Protocol: For each of the 4 examples, the ingredients in the proportions shown were mixed together. The powder mixture was then passed through a #60 screen and mixed again. The powder mixture was then filled into size 4 two-piece hard gelatin capsules as a net fill of 150 mg per capsules, so that each capsule contained 1.25 mg of ramipril. Capsules of each of the examples were stored at 50° C. for one week and then tested by a high-performance liquid chromatographic method (HPLC) to determine the degradation products as a percentage of the ramipril content.

Which “level of degradation products in the ramipril used to make the capsules” value does the source give for `CCOC(=O)[C@H](CCc1ccccc1)N[C@@H](C)C(=O)N1[C@H](C(=O)O)C[C@@H]2CCC[C@@H]21` [ramipril, Ramipril] here?
Its value is 0.29%.
